Patent US10513534B2, “2′-chloro nucleoside analogs for HCV infection” (priority 2012, dated 2019)
Read-outs that look alike come from different tables or passages of the source.

Columns and labels:
[1] = system: HCV genotype 1b replicon; experiment: HCV replicon assay (Zluc luciferase); assay type: cell-based; conditions: read-out: HCV Replicon EC50
How it was run: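 Zluc Huh-7 cells with HCV genotype 1b replicon and luciferase reporter treated with 5-fold dilutions (100 μM to 0.0000512 μM final) in duplicate, or at 1 and 10 μM. Luminescence read with ONE-glo; EC50 from dose-response fits, or % inhibition at the fixed concentrations.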

[2] = Cytotoxicity evaluation, CellTiter-Blue Cell Viability Assay; conditions: human
[3] = Stability in simulated gastric fluid; assay type: in vitro ADME; conditions: simulated gastric fluid with pepsin, 100 μM, 2 hours, 37° C.
Experimental: (§1) Stability in Simulated Gastric and Intestinal Fluids: Simulated gastric and intestinal fluids containing pepsin and pancreatin respectively were prepared according to the U.S. Pharmacopoeia USP291 procedure(www.pharmacopeia.cn/v29240/usp29nf24s0_ris1s126.html). Each test compound (final concentration 100 μM) was incubated in duplicate in the appropriate fluid for 2 hours at 37° C. The samples were quenched with […] cold acetonitrile, vortexed for 30 seconds and then centrifuged at 16100×g for 10 min. The supernatants were analyzed by HPLC on a C-18 column with UV detection at 252 nm. The time zero samples were prepared by adding SGF or SIF fluid to the quenching solvent followed by the test compound. Stability of the compound was determined by peak area of the test compound after incubation and calculated as percent of the peak area observed at time zero.

[4] = Stability in simulated intestinal fluid; assay type: in vitro ADME; conditions: simulated intestinal fluid with pancreatin, 100 μM, 2 hours, 37° C.
Experimental: as §1

[5] = system: fresh human hepatocytes; experiment: Release of active metabolite in fresh human hepatocytes; assay type: in vitro ADME; parameters: key to FHH TP (6 hr): + ≤ 15; 15 < ++ ≤ 50; 50 < +++ ≤ 100; 100 < ++++; BLD = below limit of detection; conditions: 10 μM
Experimental: (§2) Plates of fresh human and mouse hepatocytes were obtained on ice. The medium was removed and replaced with hepatocyte culture medium (William's E supplemented with penicillin-streptomycin, 1% L-glutamine, 1% insulin-transferrin-selenium and 0.1 μM Dexamethasone (Invitrogen) or with Invitro GRO HI medium complemented with Torpedo antibiotics (Celsis)). Cells were left overnight in an incubator at 37° C. to acclimatize to culture and the medium.
(§3) Hepatocyte incubations were conducted at a final volume of 0.5 mL hepatocyte culture medium/well (0.8 million cells/well for human and 0.5 million cells/well for mouse; 12 well plate no overlay, collagen coat). Culture medium from overnight incubation of cells was removed and replaced with fresh medium, pre-warmed to 37° C., containing 10 μM of test compound from a stock solution in DMSO (final DMSO concentration was 0.1%). At each specific time point, incubation medium was removed and cell monolayers were carefully washed two times with ice-cold PBS. Following the last wash, all PBS was carefully removed and 1.0 mL of extraction solution (ice-cold 70% methanol/30% water) added. Cells were scraped off and suspended in the extraction solution, transferred to 2 mL polypropylene microfuge tubes and intracellular contents extracted overnight at −20° C.
(§4) After the overnight treatment the cellular extracts were prepared by centrifugation at 16,000×g for 10 min to remove cellular debris. The remaining sample was then dried using a refrigerated centrivap concentrator. Dry extracts were reconstituted in 1000 μL of HPLC-grade water and centrifuged at 16,000×g for 10 min. Aliquots (100 μL each) of the supernatant were transferred into a 96 well plate and internal standard (4 ng/mL final concentration) was added as the internal standard (IS) for LC-MS/MS analysis.
(§5) The incubation time points were 6, 24 and 48 hours for human hepatocytes and 1, 4, 8, 12 and 24 hours for mouse hepatocytes.

[6] = system: fresh mouse hepatocytes; experiment: Release of active metabolite in fresh mouse hepatocytes; assay type: in vitro ADME; conditions: 10 μM
Experimental: as §2, §3, §4, §5

[7] = Plasma nucleoside pharmacokinetics after single oral dose in CD-1 mice; assay type: in vivo; conditions: single oral dose 10 mg/kg in PEG 200;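 for Ms Plasma nucleoside AUC: pmol·h/mL plasma normalized to a 1 µmol/kg dose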
How it was run: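 Mouse plasma was extracted by acetonitrile/0.2% formic acid protein precipitation using 2′-MeG-D3 or tiapride as internal standard. Nucleoside was quantified by positive-ion LC-MS/MS after C18 gradient separation. Calibration spanned 0.500 (LLOQ) to 200 ng/mL.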

[8] = Plasma prodrug and nucleoside pharmacokinetics after single oral dose in cynomolgus monkeys; assay type: in vivo; conditions: single oral 10 mg/kg
Experimental: (§6) For each compound, a single oral dose at 10 mg/kg in PEG 200 (dose volume 3 mL/kg) was administered to cynomolgus monkeys. Untreated animals were used for the collection of control liver. Plasma samples were collected at 0.5, 1, 2, 4, 6, 8, 12 and 24 hours for compound 37, diastereomer 2.
Plasma samples were analyzed for the prodrug and nucleoside by LC-MS/MS. For protein precipitation and extraction, each plasma sample (50 μL) was treated with 500 μL of 0.2% formic acid in acetonitrile and 20 μL of an appropriate internal standard working solution. After vortexing and centrifugation, 500 µL of the sample extracts were transferred to a new plate, dried under N2 at ˜28° C. and reconstituted with 75 μL of 0.2% FA in water. The extracts were chromatographed on an Aquasil C18 column using a gradient system of 0.2% formic acid in water and acetonitrile. The analytes were detected and quantified by tandem mass spectrometry in positive ion mode on an MDS Sciex API4000 equipped with a Turbo Ionspray® interface.

[9] = Liver triphosphate pharmacokinetics after single oral dose in cynomolgus monkeys; assay type: in vivo; conditions: for Nucleoside triphosphate in Liver C6: 6 hours post dose, 10 mg/kg oral; for Nucleoside triphosphate in Liver C6 / Nucleoside triphosphate in Liver AUC0-24 / Nucleoside triphosphate in Liver Cmax: normalized to 1 μmol/kg dose
Experimental: as §6
Liver samples were analyzed for the relevant nucleoside triphosphate by LC-MS/MS. […] Appropriate internal standard solution was added to the homogenate followed by neutralization with 20% ammonium hydroxide solution and addition of 500 μL 1% formic acid. The tissue samples were extracted by weak anion exchange solid phase extraction (SPE). Post extraction, the eluates were evaporated under nitrogen, followed by reconstitution before injection onto the LC-MS/MS system.

[10] = system: Zluc cells; experiment: Cytotoxicity evaluation, CellTiter-Blue Cell Viability Assay; conditions: Zluc cells, CellTiter-Blue
[11] = Stability in liver microsomes; assay type: in vitro ADME; conditions: human liver microsomes 1.0 mg/mL, 10 μM, NADPH, 60 min
Experimental: (§7) Stability of test compounds were determined in human liver and intestinal microsomes in duplicate for each matrix. Pooled liver and intestinal microsomal proteins (1.0 mg/mL), suspended in incubation buffer (100 mM potassium phosphate, pH 7.4, 5 mM MgCl2, and 0.1 mM EDTA), were preincubated for 5 min at 37° C. with 10 μM of a test compound from a 10 mM stock solution in DMSO (final DMSO concentration was 0.1%); the reaction was initiated by the addition of NADPH (3 mM final concentration). At specific times (0 and 60 min), 0.1 mL samples were taken and the reaction terminated by the addition of 4 volumes of stop solution (acetonitrile with 500 ng/mL carbutamide as an internal standard). The samples were vortexed for 30 sec and then centrifuged at 16000×g for 10 min. 100 μL of supernatants were transferred to 96 deep-well plates preloaded with 100 μL distilled water and analyzed after mixing by LC-MS/MS. The MS peak area ratio of the test compound versus the internal standard was calculated and percent unchanged test compound over 60 minutes was calculated using this ratio.

[12] = Stability in intestinal microsomes; assay type: in vitro ADME; conditions: human intestinal microsomes 1.0 mg/mL, 10 μM, NADPH, 60 min
Experimental: as §7

[13] = Liver triphosphate pharmacokinetics after single oral dose in CD-1 mice; assay type: in vivo; conditions: single oral dose 10 mg/kg in PEG 200;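 for Ms Liver TP AUC: pmol·h/g liver normalized to a 1 µmol/kg dose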;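 for Ms Liver TP Cmax: pmol/g liver normalized to a 1 µmol/kg dose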
Experimental: Internal standard solution was added to the homogenate followed by neutralization with 20% ammonium hydroxide solution and addition of 500 μL 1% formic acid. The tissue samples were extracted by weak anion exchange solid phase extraction (SPE). Post extraction, the eluates were evaporated under nitrogen, followed by reconstitution before injection onto the LC-MS/MS system.

| Compound | EC50 ([1]; Hepatitis C virus, 72 h) [µM] | CC50 [2] [µM] | EC50 ([1]; Zluc cells, 72 hours) [µM] | MsH AUC [6] | MsH Cmax [6] | Ms Plasma nucleoside Cmax [7] | Nucleoside triphosphate in Liver C6 [9] | Nucleoside triphosphate in Liver AUC0-24 ([9]; single oral 10 mg/kg) | Nucleoside triphosphate in Liver Cmax ([9]; single oral 10 mg/kg) | CC50 [10] [µM] | HLM (1 hr) stability (percent remaining) [11] | HIM (1 hr) stability (percent remaining) [12] | Ms Plasma nucleoside AUC [7] | also measured |
| --- | --- | --- | --- | --- | --- | --- | --- | --- | --- | --- | --- | --- | --- | --- |
| CCOC(=O)COP(=O)(OC[C@H]1O[C@@H](n2ccc(=O)[nH]c2=O)[C@](C)(Cl)[C@@H]1O)Oc1ccccc1 (mixture of isomers) [Compound 72 Mixture of P-Diastereoisomers] | > 10 | > 50 | – | – | – | – | – | – | – | – | – | – | – | – |
| CC(C)OP1(=O)OC[C@H]2O[C@@H](n3ccc(=O)[nH]c3=O)[C@](C)(Cl)[C@@H]2O1 (single isomer, unassigned) [Compound 37 Diastereomer 2] | – | – | 1 to 10 | ++++ (1500 < ++++) | ++++ (100 < ++++) | +++ (50 < +++ ≤ 100) | ++++ (100 < ++++) | ++++ (1500 < ++++) | ++++ (100 < ++++) | > 50 | – | – | – | SGF stability (percent remaining) [3]: ++++ (75% < ++++); SIF stability (percent remaining) [4]: ++++ (75% < ++++); FHH TP AUC [5]: +++ (500 < +++ ≤ 1500); FHH TP Cmax [5]: ++ (15 < ++ ≤ 50); FHH TP (6 hr) ([5]; 6 hr): BLD^b; FHH TP (24 hr) ([5]; 24 hr): ++ (15 < ++ ≤ 50); FHH TP (48 hr) ([5]; 48 hr): ++ (15 < ++ ≤ 50); Tmax ([8]; cynomolgus monkey, plasma): 4 h; AUC(0-t) ([8]; cynomolgus monkey, plasma, normalized to 1 μmol/kg dose, read-out: Plasma prodrug AUC0-24): > 1.5 µM·h; Cmax ([8]; cynomolgus monkey, plasma, normalized to 1 μmol/kg dose, read-out: Plasma prodrug Cmax): > 100 nM |
| CCOC(=O)COP(=O)(OC[C@H]1O[C@@H](n2ccc(=O)[nH]c2=O)[C@](C)(Cl)[C@@H]1O)Oc1ccccc1 (single isomer, unassigned) [Compound 72 Diastereomer 1] | > 10 | > 50 | – | – | – | – | – | – | – | – | – | – | – | – |
| CC(C)OC(=O)[C@@H](C)NP(=O)(OC[C@H]1O[C@@H](n2ccc(=O)[nH]c2=O)[C@](C)(Cl)[C@@H]1O)Oc1ccccc1 (single isomer, unassigned; diastereomer 1) [Compound 40i Diastereomer 1] | – | – | > 10 | ++++ (1500 < ++++) | ++++ (100 < ++++) | +++ (50 < +++ ≤ 100) | ++++ (100 < ++++) | ++++ (1500 < ++++) | ++++ (100 < ++++) | > 50 | + (+ ≤ 25%) | +++ (50% < +++ ≤ 75%) | +++ (500 < +++ ≤ 1500) | Plasma nucleoside Tmax [8]: 6 h; Plasma prodrug Tmax [8]: 2 h; Plasma nucleoside AUC0-24 ([8]; normalized to 1 μmol/kg dose): ++ (150 < ++ ≤ 500); Plasma prodrug AUC0-24 ([8]; normalized to 1 μmol/kg dose): + (+ ≤ 150); Cmax ([8]; normalized to 1 μmol/kg dose, read-out: Plasma nucleoside Cmax): 15 to 50 nM; Cmax ([8]; normalized to 1 μmol/kg dose, read-out: Plasma prodrug Cmax): ≤ 15 nM; Nucleoside triphosphate in Liver Tmax ([9]; single oral 10 mg/kg): 6 h |
| CC(C)OC(=O)[C@@H](C)NP(=O)(OC[C@H]1O[C@@H](n2ccc(=O)[nH]c2=O)[C@](C)(Cl)[C@@H]1O)Oc1ccccc1 (single isomer, unassigned; diastereomer 2) [Compound 40i Diastereomer 2] | – | – | – | +++ (500 < +++ ≤ 1500) | +++ (50 < +++ ≤ 100) | +++ (50 < +++ ≤ 100) | – | – | – | – | +++ (50% < +++ ≤ 75%) | ++++ (75% < ++++) | +++ (500 < +++ ≤ 1500) | Ms Liver TP AUC [13]: ++++ (1500 < ++++); Ms Liver TP Cmax [13]: ++++ (100 < ++++) |
